{
  "source": "paper PMC10817170",
  "about": "“Effect of an NHE3 inhibitor in combination with an NPT2b inhibitor on gastrointestinal phosphate absorption in Rodent models” (PLOS ONE, 2024)",
  "key": {"Human NPT2b": {"molecular_target": "T1, Human NPT2b (Homo sapiens, UniProt O95436)", "T1 construct": "expressed in transfected cells; host or cells: T-Rex CHO (Thermo Fisher Scientific), tetracycline-inducible", "T1 sequence (O95436 1-690)": "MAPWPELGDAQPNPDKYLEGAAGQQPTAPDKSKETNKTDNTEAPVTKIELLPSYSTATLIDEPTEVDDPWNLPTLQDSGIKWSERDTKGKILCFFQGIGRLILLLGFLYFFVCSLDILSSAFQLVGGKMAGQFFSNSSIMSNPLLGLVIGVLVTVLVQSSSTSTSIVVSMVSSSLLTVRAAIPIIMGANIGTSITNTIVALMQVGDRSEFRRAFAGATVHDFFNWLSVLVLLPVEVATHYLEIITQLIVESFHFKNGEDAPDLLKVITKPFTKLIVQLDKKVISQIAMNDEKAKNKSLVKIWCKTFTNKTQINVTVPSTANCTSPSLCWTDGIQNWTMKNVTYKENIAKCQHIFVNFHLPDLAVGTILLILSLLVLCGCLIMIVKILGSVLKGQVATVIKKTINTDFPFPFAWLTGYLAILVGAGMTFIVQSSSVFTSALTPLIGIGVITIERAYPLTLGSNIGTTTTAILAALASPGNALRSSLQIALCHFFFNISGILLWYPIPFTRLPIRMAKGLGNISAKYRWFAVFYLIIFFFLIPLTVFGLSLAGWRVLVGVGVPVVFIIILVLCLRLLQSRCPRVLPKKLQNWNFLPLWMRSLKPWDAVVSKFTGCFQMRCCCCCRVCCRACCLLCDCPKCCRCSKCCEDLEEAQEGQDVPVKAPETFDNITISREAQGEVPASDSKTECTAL", "assay": "NPT2b activity assay (33P-phosphate uptake in T-Rex CHO cells)", "assay_type": "cell-based", "details": "geometric mean, n=3", "description": "Generation of inducible human, mouse, and rat NPT2b overexpressing T-Rex™ Chinese Hamster Ovary (CHO, Thermo Fisher Scientific) cells and the NPT2b activity assay were described previously. Briefly, cells were plated in 96-well CytoStar-T® scintillating microplates and were incubated overnight in medium plus 100 ng/mL of tetracycline to induce the expression of human NPT2b. The cells were then washed 3 times with 200 μL Assay Buffer (137 mM NaCl, 5.4 mM KCl, 2.8 mM CaCl2, 1.2 mM MgSO4, and 14 mM Tris-HCl buffer, pH 7.5). LY3304000 serially diluted 1-to-3 in DMSO was added to cells with Assay Buffer. An equal volume of H3^33PO4 (PerkinElmer) in Assay Buffer supplemented with 5 μM potassium phosphate was then added to initiate radiolabeled phosphate (^33P-phosphate) uptake. The final phosphate concentration was 2.5 μM. Following a 60-minute incubation at room temperature, an equal volume of Assay Buffer containing 400 μM phloretin was added to stop ^33P-phosphate uptake. The plate was immediately read on a Wallac MicroBeta Trilux liquid scintillation counter. Percent inhibition at all concentrations tested was calculated, and IC50 values were then determined using a 4-parameter logistic curve fitting equation."}, "[1]": {"system": "intestinal phosphate absorption", "assay": "Phosphate absorption in rats: 33P in plasma (15 min) and recovered in gastrointestinal tract (4 h), single agents and combination", "assay_type": "in vivo", "details": "0.4 mg/kg LY3304000, 10 mg/kg LY3358966 or both", "description": "We also evaluated the effect of LY3304000 and LY3358966 in combination on phosphate absorption in rats by measuring radioactive phosphate recovered in either plasma or the gastrointestinal (GI) tract. In this combination study, two vehicles were used. One is 1% HEC vehicle for making LY3304000 dosing solution, another is 0.46% PVP-VA vehicle contained in LY3358966 SDD. To make the LY3358966 dosing solution, an appropriate amount of LY3358966-SDD was weighed for a 10 mg/kg API dosing solution with 5 mL/kg dosing volume and dissolved in water. To make the LY3304000 dosing solution, an appropriate amount of LY3304000 was weighed for a 0.4 mg/kg dosing solution with 5 mL/kg dosing volume and dissolved in 1% HEC. The Radiolabeled Phosphate Dosing Solutions was made as described above. Following 4-hour fasting with access to water, male SD rats were orally dosed at 10 mL/kg with either two vehicles, an LY3358966 dosing solution and 1% HEC vehicle, an LY3304000 dosing solution and 0.46% PVP-VA vehicle, or an LY3304000 and LY3358966 dosing solutions, combined 1:1 by volume. Fifteen minutes later, Radiolabeled Phosphate Dosing Solution was orally dosed in a 2 mL volume. Fifteen minutes after the radiolabeled phosphate dose, blood was collected by retro orbital bleeding, and plasma was prepared. Radioactivity (dpm) in 20-μL plasma was measured by scintillation counting. The mole amount of phosphate uptake in the plasma was calculated as described above. Four hours post radioactive phosphate dose, the animals were sacrificed by asphyxiation with CO2 followed by cervical dislocation and then the stomach, small intestine, large intestine, and feces were collected and weighed. The tissues and feces were digested in 20 mL or 10 mL of 1 N NaOH, respectively, overnight at 37°C. A 100 μL sample of the homogenates were dispensed into scintillation vials and mixed with 10 mL of Optiphase Supermax scintillation fluid (PerkinElmer), and radioactivity (dpm) was measured by scintillation counting. Very little radioactivity was detected in the feces at 4 hours post radioactive phosphate dose. The percentage of radiolabeled phosphate recovered in the gastrointestinal tissue was defined as radioactivity (dpm) recovered in each fraction compared to the amount of radioactivity (dpm) administered. The mole amount of phosphate uptake into plasma in vehicle and LY3358966 and LY3304000 alone groups were compared to the LY3358966 and LY3304000 combination group using One-way ANOVA with Dunnett’s multiple comparisons. Percent recovery of ^33P phosphate in the rat gastrointestinal tract was analyzed by two-way analysis of variance (ANOVA) in JMP 12.1 to test for additivity of the effects of LY3304000 and LY3358966 on inhibiting phosphate absorption."}},
  "note": "“And” between values parts separate entries of the source, which are not always exact repeats. Equal values may be shown once.",
  "data": [
    {"molecule": "CN1Cc2c(Cl)cc(Cl)cc2[C@H](c2cccc(S(=O)(=O)NCCOCCOCCN/C(=N\\C(N)=O)NCCCCN/C(=N/C(N)=O)NCCOCCOCCNS(=O)(=O)c3cccc([C@@H]4CN(C)Cc5c(Cl)cc(Cl)cc54)c3)c2)C1.Cl.Cl", "note": "[LY3304000, (Z)-[[4-[[(Z)-N’-carbamoyl-N-[2-[2-[2-[[3-[(4S)-6,8-dichloro-2-methyl-3,4-dihydro-1H-isoquinolin-4-yl]phenyl]sulfonylamino]ethoxy]ethoxy]ethyl]carbamimidoyl]amino]butylamino]-[2-[2-[2-[[3-[(4S)-6,8-dichloro-2-methyl-3,4-dihydro-1H-isoquinolin-4-yl]phenyl]sulfonylamino]ethoxy]ethoxy]ethylamino]methylene]urea dihydrochloride]", "values": [
      {"measurement": "IC50", "setting": "Human NPT2b", "result": 58.4, "unit": "µM"},
      {"measurement": "phosphate uptake into plasma", "setting": "[1]; 15 min post 33P phosphate, vehicle 166, mean ± SEM, n=8", "result": "118 nmol and 118 ± 8 nmol"},
      {"measurement": "percentage of radiolabeled phosphate recovered, Feces", "setting": "[1]; 4 h", "result": "<0.1", "unit": "%"},
      {"measurement": "percentage of radiolabeled phosphate recovered, Large Intestine", "setting": "[1]; 4 h", "result": "18.16 +/- 2.58%"},
      {"measurement": "percentage of radiolabeled phosphate recovered, Small Intestine", "setting": "[1]; 4 h", "result": "8.64 +/- 0.32%"},
      {"measurement": "percentage of radiolabeled phosphate recovered, Stomach", "setting": "[1]; 4 h", "result": "3.9 +/- 0.49%"},
      {"measurement": "percentage of 33P recovered in GI tract, total", "setting": "[1]; 4 h post 33P phosphate, stomach, small intestine, large intestine and feces, vehicle 25%", "result": "31 ± 7% and 31% and 30.7 +/- 2.43%"},
      {"measurement": "inhibition at 0.4 mg/kg", "setting": "[1]; Rattus norvegicus, 0.25 h, 15 min post 33P phosphate, versus vehicle, read-out: inhibition of phosphate uptake into plasma", "result": 29, "unit": "%"}
    ]}
  ]
}
